From ChEMBL document CHEMBL1201862, “PubChem BioAssay data set” (2004) come the findings set out here.

The target in assay [1] is Tyrosine-protein phosphatase non-receptor type 12 (Homo sapiens, UniProt Q05209). Nature of the assay: SAR Selectivity Analysis of small molecule inhibitors of PEST using pCAP in a fluorescence assay. [Related pubchem assays (depositor defined):AID1779, AID1784, AID2135]. It is filed as functional.
Assay [2] concerns the target Glyceraldehyde-3-phosphate dehydrogenase (Homo sapiens, UniProt P04406).
In assay [3] the target is T1, Tyrosine-protein phosphatase non-receptor type 22 (Homo sapiens, UniProt Q9Y2R2).
T1 sequence (Q9Y2R2 whole entry): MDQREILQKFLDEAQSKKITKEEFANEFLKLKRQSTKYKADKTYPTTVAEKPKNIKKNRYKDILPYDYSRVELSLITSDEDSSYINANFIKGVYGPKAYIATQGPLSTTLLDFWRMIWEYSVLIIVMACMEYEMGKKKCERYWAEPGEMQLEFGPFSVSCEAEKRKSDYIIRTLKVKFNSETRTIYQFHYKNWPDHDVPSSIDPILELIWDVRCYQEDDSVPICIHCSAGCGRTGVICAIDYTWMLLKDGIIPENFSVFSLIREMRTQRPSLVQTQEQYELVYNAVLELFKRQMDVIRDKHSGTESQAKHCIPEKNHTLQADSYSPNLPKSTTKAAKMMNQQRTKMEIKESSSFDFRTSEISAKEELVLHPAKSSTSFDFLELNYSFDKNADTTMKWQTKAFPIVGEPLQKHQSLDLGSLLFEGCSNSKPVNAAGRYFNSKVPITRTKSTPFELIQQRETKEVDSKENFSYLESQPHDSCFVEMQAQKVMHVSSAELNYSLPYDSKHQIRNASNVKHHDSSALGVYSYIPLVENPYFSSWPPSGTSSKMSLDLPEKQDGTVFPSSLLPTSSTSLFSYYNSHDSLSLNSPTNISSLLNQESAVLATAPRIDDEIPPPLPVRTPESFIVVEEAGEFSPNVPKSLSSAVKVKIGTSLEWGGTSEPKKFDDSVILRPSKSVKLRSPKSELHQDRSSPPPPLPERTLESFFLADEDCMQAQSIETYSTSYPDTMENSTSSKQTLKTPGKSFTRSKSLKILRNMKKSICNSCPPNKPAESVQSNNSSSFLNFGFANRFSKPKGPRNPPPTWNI
Nature of the assay: SAR LYP1 Fluorescent Assay using OMFP substrate for In Vitro dose response studies - Set 3. [Related pubchem assays (depositor defined):AID1779, AID1784, AID2140, AID2686]. It is filed as functional.

In assay [4] the target is T1, Tyrosine-protein phosphatase non-receptor type 22. Nature of the assay: LYP (PTPN22) phosphatase inhibitor potency, SAR follow-up, biochemical, pCAP fluorogenic substrate, fluorescence, set 3 (AID 449727). It is filed as functional.
A further assay concerns the target Phosphomannomutase 2 (Homo sapiens, UniProt O15305). The experiment in a line: Counter screen SAR assay for PMM2 inhibitors via a fluorescence intensity assay. [Related pubchem assays (depositor defined):AID1545, AID1574].
For a further assay, the target named is T2, Hexokinase (Trypanosoma brucei, UniProt Q38C41).
T2 sequence (Q38C41 whole entry): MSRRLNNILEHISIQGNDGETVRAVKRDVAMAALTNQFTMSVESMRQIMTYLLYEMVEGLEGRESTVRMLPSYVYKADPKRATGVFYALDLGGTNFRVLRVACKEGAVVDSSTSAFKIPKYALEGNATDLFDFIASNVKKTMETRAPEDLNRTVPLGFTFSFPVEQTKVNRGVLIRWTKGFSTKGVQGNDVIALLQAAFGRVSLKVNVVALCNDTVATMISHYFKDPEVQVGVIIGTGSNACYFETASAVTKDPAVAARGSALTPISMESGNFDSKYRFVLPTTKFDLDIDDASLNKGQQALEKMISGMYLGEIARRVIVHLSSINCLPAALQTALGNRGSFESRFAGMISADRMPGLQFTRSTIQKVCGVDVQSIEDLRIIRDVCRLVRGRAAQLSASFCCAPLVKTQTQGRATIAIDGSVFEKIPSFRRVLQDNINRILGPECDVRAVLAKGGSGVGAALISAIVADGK
Nature of the assay: Confirmation assay for inhibitors of Trypanosoma brucei hexokinase 1-Analogue-first series. [Related pubchem assays (depositor defined):AID1430, AID1632, AID2516, AID2560, AID2579, AID2600, AID449725, AID492951]. It is filed as functional.

The target of assay [5] is Phosphoethanolamine/phosphocholine phosphatase (Homo sapiens, UniProt Q8TCT1). The experiment in a line: SAR assay for compounds that inhibit PHOSPHO1. [Related pubchem assays (depositor defined):AID1545, AID1565, AID1574].
The target of assay [6] is T3, Mannose-6-phosphate isomerase (Homo sapiens, UniProt P34949).
T3 sequence (P34949 whole entry): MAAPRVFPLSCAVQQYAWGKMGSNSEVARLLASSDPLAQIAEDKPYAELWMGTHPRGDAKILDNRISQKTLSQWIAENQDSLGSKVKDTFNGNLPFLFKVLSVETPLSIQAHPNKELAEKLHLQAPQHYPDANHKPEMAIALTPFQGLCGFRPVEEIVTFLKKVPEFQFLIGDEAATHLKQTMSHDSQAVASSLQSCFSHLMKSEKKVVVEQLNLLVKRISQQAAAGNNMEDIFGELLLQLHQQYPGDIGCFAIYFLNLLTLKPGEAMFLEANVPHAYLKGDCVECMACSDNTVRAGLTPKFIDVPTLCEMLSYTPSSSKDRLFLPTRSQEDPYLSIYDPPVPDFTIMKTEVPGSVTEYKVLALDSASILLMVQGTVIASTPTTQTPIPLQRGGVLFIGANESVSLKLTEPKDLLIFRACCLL
Nature of the assay: PMI enzyme inhibitors, confirmation, biochemical, fluorescence intensity (AID 1535).

The target in assay [7] is T4, Zinc finger protein mex-5 (Caenorhabditis elegans, UniProt Q9XUB2).
T4 sequence (Q9XUB2 whole entry): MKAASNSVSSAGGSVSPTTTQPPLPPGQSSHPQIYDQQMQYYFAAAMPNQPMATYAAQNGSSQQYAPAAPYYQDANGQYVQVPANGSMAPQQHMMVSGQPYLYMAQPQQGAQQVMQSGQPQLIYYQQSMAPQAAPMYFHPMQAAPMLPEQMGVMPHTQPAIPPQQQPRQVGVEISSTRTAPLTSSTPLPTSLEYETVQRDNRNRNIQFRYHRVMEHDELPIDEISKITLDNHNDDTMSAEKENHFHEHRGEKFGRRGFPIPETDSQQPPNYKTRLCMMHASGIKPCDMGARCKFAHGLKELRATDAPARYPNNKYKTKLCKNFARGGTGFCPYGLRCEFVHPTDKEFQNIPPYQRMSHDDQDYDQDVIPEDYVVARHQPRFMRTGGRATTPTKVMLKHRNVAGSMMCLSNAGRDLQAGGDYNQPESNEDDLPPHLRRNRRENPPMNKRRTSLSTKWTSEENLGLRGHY
Nature of the assay: MEX-5/TCR-2 RNA interaction inhibitors, dose response, biochemical, C. elegans, fluorescence polarization (AID 1960). (In general: Polarisation of emitted light reports the rotation of a fluorescent probe.)

Another assay deals with Protein Rev (Human immunodeficiency virus type 1 group M subtype B (isolate HXB2)(HIV-1), UniProt P04618). The experiment in a line: inhibitors of Rev binding to RRE RNA, dose response, biochemical, fluorescence polarization, HIV-1 (AID 434976). The arrangement: species or system Human immunodeficiency virus 1.
Assay [8] deals with T5, RNA-binding protein pos-1 (Caenorhabditis elegans, UniProt G5EF15).
T5 sequence (G5EF15 whole entry): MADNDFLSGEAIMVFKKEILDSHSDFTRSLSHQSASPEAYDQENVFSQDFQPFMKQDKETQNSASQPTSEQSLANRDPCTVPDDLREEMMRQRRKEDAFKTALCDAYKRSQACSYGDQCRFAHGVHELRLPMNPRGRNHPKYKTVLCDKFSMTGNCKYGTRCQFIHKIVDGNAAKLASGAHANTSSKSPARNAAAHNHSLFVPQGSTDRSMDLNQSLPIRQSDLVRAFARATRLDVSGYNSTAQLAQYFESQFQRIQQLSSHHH
The experiment in a line: inhibitors of POS-1/mex-3 RNA binding, dose response, biochemical, fluorescence polarization (AID 1964).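 Note: purified POS-1 fused to maltose binding protein made in E. coli; potency of compounds blocking POS-1 binding to fluorescent RNA.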

Assay [9] addresses Female germline-specific tumor suppressor gld-1 (Caenorhabditis elegans, UniProt Q17339). The experiment in a line: inhibitors of GLD-1 binding to TGE RNA, dose response, biochemical, fluorescence polarization, C. elegans (AID 2802).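 Note: fluorescence polarization of labeled TGE RNA bound by purified gld-1 protein.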
The target in assay [10] is Melanin-concentrating hormone receptor 1 (Homo sapiens, UniProt Q99705). The experiment in a line: Late-stage fluorescence-based counterscreen for antagonists of the G-protein coupled receptor 7 (GPR7): cell-based dose response assay to identify antagonists of the melanin-concentrating hormone receptor 1 (MCHR1). [Related pubchem assays (depositor defined):AID1861, AID1880, AID1952, AID2148, AID2251, AID2257, AID485339]. It is filed as functional.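 Note: stimulated with 30 nM MCH peptide agonist.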

For assay [11], the target named is Neuropeptides B/W receptor type 1 (Homo sapiens, UniProt P48145). Nature of the assay: GPR7 antagonist potency, late-stage follow-up, cell-based, fluorescence, dose response (AID 463251). It is filed as functional.
In assay [12] the target is NACHT, LRR and PYD domains-containing protein 3 (Homo sapiens, UniProt Q96P20). The experiment in a line: NALP3 inhibitors in yeast, dose response, luminescent (AID 488799). It is filed as functional.
Assay [13] in a line: THP-1 cell cytotoxicity, dose response, cytotoxicity control for non-replicating M. tuberculosis project (AID 489025). It is filed as functional.
A short description of assay [14]: Vero E6 cell cytotoxicity, dose response, cytotoxicity control for non-replicating M. tuberculosis project, secondary assay (AID 492998). It is filed as functional, VeroE6. Particulars: Vero C1008.
The next assay is described as follows: cells. It is filed as functional.
For a further assay, the target named is Trypsin (Sus scrofa, UniProt P00761). The experiment in a line: porcine trypsin inhibitors, dose response, selectivity assay for Rce1 protease inhibitor project, biochemical, quenched peptide fluorescence, cherry-pick (AID 488789).

SMILES strings stand for the structures. Active and inactive are the calls of the source.

Chain of Tyrosine-protein phosphatase non-receptor type 12 (Q05209 whole entry): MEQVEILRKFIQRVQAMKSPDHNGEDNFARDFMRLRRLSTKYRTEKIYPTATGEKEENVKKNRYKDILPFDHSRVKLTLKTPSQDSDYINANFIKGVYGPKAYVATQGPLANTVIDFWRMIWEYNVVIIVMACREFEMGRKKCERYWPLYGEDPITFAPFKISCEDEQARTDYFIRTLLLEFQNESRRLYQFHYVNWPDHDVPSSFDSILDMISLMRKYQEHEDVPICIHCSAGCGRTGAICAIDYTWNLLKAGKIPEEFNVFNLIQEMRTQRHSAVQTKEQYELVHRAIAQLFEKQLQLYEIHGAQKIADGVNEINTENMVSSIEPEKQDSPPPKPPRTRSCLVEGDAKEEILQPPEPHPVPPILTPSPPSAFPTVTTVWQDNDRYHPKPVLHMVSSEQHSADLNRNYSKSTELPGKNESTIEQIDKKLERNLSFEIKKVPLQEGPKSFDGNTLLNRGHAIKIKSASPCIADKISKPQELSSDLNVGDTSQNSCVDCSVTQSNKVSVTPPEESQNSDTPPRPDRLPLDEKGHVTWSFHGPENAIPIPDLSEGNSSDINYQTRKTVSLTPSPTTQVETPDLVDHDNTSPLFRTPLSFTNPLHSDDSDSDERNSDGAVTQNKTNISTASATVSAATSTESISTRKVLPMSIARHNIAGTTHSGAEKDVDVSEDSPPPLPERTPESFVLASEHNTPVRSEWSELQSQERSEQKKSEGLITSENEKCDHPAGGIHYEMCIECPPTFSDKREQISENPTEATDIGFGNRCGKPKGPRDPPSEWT
Chain of Phosphoethanolamine/phosphocholine phosphatase (Q8TCT1 whole entry): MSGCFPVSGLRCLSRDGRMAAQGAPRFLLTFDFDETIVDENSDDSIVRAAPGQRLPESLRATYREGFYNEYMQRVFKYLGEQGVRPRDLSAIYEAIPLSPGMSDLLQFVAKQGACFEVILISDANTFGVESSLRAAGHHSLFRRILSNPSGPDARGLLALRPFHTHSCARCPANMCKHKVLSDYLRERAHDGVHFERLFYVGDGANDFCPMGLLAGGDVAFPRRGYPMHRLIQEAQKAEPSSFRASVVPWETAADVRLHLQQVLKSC
Chain of NACHT, LRR and PYD domains-containing protein 3 (Q96P20 whole entry, the tested form may be a part): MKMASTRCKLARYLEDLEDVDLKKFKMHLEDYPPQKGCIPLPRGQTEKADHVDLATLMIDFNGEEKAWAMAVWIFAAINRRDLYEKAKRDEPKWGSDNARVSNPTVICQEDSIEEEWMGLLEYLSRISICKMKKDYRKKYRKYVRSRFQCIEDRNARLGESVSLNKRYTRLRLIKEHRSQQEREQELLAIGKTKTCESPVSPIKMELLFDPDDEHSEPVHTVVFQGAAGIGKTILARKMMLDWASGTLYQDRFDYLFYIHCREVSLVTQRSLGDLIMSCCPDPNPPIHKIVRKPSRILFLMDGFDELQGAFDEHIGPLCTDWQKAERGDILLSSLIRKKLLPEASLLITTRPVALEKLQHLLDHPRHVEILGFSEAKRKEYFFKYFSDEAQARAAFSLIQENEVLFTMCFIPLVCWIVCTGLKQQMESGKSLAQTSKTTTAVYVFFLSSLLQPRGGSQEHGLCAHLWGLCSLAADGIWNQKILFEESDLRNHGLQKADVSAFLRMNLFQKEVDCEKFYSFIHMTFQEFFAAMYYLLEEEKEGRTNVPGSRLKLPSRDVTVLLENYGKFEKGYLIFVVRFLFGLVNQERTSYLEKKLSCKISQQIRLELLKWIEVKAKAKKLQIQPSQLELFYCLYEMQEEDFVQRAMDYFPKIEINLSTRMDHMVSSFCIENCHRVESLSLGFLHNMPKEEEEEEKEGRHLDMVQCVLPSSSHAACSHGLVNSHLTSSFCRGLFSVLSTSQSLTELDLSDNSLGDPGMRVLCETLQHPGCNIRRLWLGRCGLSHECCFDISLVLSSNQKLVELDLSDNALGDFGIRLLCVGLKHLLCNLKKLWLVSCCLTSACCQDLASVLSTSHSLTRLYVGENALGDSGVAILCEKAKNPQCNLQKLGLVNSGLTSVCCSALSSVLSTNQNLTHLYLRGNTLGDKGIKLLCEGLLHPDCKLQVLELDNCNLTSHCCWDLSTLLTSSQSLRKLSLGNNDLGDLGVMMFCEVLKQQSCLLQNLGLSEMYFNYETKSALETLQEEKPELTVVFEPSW
Chain of Female germline-specific tumor suppressor gld-1 (Q17339 whole entry): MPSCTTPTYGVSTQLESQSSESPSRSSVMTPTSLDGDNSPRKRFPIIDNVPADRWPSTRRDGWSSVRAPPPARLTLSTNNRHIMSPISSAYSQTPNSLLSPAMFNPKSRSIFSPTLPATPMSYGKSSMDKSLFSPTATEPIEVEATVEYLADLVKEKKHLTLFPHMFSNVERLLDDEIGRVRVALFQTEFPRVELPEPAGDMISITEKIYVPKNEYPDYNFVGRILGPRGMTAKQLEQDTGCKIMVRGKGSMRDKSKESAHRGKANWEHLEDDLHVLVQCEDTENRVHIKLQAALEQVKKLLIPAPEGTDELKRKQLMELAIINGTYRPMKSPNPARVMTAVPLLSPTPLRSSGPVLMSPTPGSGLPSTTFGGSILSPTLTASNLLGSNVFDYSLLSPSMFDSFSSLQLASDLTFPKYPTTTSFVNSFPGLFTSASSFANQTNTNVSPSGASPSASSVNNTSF
Chain of Neuropeptides B/W receptor type 1 (P48145 whole entry, the tested form may be a part): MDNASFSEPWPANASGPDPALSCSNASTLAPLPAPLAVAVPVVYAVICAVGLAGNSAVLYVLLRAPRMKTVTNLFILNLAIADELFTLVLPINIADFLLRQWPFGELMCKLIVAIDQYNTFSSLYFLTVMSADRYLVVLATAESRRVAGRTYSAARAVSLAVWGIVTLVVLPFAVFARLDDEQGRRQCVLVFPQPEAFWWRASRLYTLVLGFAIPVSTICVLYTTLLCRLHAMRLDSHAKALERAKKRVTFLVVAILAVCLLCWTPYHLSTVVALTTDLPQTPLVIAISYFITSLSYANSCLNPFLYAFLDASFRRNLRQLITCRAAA
Chain of Melanin-concentrating hormone receptor 1 (Q99705 whole entry): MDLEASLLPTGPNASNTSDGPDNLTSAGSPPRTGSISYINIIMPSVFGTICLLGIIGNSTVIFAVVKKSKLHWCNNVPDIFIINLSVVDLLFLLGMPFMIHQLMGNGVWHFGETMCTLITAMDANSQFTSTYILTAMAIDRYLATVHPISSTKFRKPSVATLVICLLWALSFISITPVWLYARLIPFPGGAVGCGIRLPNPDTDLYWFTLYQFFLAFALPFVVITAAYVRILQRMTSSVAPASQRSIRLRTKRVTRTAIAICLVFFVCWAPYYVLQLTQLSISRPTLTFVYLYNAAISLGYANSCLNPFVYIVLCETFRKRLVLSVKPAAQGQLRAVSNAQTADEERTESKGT
Chain of Phosphomannomutase 2 (O15305 whole entry): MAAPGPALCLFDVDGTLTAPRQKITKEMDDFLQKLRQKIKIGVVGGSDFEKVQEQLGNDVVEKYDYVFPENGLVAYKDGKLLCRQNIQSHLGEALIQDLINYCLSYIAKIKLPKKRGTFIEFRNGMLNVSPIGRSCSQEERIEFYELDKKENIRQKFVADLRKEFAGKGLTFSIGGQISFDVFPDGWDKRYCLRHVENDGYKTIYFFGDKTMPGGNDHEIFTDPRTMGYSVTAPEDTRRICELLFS
Chain of Trypsin (P00761 whole entry): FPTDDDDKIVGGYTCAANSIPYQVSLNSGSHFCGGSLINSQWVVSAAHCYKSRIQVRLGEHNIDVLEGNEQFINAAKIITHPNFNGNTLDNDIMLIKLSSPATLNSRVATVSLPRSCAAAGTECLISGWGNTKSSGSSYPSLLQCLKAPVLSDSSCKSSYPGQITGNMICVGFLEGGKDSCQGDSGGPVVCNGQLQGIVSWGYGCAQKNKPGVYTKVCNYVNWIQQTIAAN
Chain of Protein Rev (P04618 whole entry): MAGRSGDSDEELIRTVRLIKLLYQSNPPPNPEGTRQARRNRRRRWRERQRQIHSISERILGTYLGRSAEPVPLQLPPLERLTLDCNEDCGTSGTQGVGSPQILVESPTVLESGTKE
Chain of Glyceraldehyde-3-phosphate dehydrogenase (P04406 whole entry): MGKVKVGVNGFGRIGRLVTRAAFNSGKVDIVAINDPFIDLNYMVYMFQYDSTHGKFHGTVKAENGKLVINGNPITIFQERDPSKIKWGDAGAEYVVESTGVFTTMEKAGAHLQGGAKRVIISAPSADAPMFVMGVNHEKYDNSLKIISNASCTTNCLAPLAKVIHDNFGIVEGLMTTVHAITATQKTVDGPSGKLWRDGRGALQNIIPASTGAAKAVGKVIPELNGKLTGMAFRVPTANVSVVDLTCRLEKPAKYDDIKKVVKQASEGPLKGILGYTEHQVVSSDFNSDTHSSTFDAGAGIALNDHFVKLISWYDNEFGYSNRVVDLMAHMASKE

What is called IC50 is the concentration that inhibits the measured activity by half. On to `O=C(O)c1ccc(-c2ccc(/C=C3\SC(=S)N(c4ccc([N+](=O)[O-])cc4)C3=O)o2)cc1`, for which the concentration for half-maximal inhibition (IC50) is 0.216 µM (active) in assay [1], > 100 µM (not active) in [2], 0.821 µM (active) in [3] and 0.602 µM (active) in [4].
For the molecule `O=c1c2ccc([N+](=O)[O-])cc2sn1-c1ccccc1`, the IC50 on Phosphomannomutase 2 is > 100 µM (inactive); at Hexokinase it was 11.6 µM (active); in assay [5], 4.23 µM (inactive); in assay [6] it was > 50 µM (inactive).
What is called EC50 is the concentration giving half of the maximal effect. `O=C(CN1C(=O)C2CC=C(Cl)CC2C1=O)NCc1ccccc1` (centres undefined): the values for the EC50 in [7] and in assay [8] were 24.7 µM (active) and 34.1 µM (active), respectively. Besides, the IC50 is 25.8 µM (not active) at Protein Rev and 7.72 µM (active) in assay [9].
As to `COc1cc(OC)cc(Oc2c(Cl)cnn(-c3ccc(C(C)C)cc3)c2=O)c1`, the IC50 in assay [10] is 10.5 µM (inactive); in assay [11], 8.2 µM (active).
For orientation: CC50 means the concentration at which the toxic effect on the cells reaches its halfway point. Regarding `O=c1c2cc(Cl)ccc2nc(-c2ccc([N+](=O)[O-])cc2)n1O`, the IC50 in assay [12] was 6.6 µM (active); in “cells” it was 17.8 µM (active). Further, the figures for the half-maximal cytotoxic concentration (CC50) in assay [13] and in [14] were 22.6 µM (active) and 17.3 µM (active), respectively.
By AC50 is commonly meant the concentration at which the activity in the assay is half-maximal. In the case of `CCn1cc(C(=O)NCCO)c(=O)c2cc(F)c(N3CCN(C)CC3)cc21`, at Trypsin, the AC50 was 39.2 µM (active).
